According to patent US20190125715A1, “CDDO-Me AS A THERAPY FOR LUPUS” (priority 2014, published 2019):

Key:
B6.Sle1.Sle3 mice = experiment: Preventive experiment in B6.Sle1.Sle3 mice: spleen weight, splenic cellularity and lymphocyte subsets by flow cytometry; format: in vivo, mouse; design: Splenic B cells: B220+, AA4.1+ (mature) / Splenic B cells: Follicular B cells / Splenic B cells: Marginal zone B cells / Splenic B cells: B1a cells / Splenic B cells: B220+, AA4.1+ (immature) / Splenic B cells: T1 immature / Splenic B cells: T2 immature / Splenic B cells: T3 immature / Splenic T cells: CD4 T cells / Splenic T cells: CD8 T cells: unit not given here
Protocol: Flow cytometric analysis and antibodies: Splenocytes were depleted of red blood cells using a lysis buffer (containing 0.15M NH4Cl, 10 mM KHCO3, and 0.1 mM Na2EDTA, pH 7.2), and single-cell suspensions were prepared for flow cytometric analysis. Flow cytometric analysis was performed as described previously (17).
In vivo experiments: In the first preventive experiment, CDDO-Me was diluted in sesame oil. Two-month-old B6.Sle1.Sle3 mice (n=20) received CDDO-Me at a final dose of 3 mg/kg or vehicle alone (i.e., placebo), by oral gavage 3 times per week for a period of 2 months. In a confirmatory preventive study, 2-month-old MRL/lpr mice (n=8 per group) were orally administered CDDO-Me (3 mg/kg), sesame oil, water, or dexamethasone (1 mg/kg) 3 times a week for 2 months. Serum and 24-hour urine samples were obtained on days 0, 14, and 60. All serum samples were subjected to ELISA for autoantibodies, and urine samples were assayed for total protein as previously described (17,18). On day 60, when mice were killed, the cellular composition of the spleen and lymph nodes was determined by flow cytometry, and the kidneys were examined for pathology, as described below. In addition, the expression of various signaling molecules in the spleens and kidneys of the treated mice was assayed by Western blotting, as described above. In the treatment experiment, 7-month-old NZM2410 mice with proteinuria (n=4-7 per group) were treated with CDDO-Me (3 mg/kg) or placebo by oral gavage 5 times per week for a period of 2 months. Proteinuria, autoantibody production, spleen weight, and survival rates were assessed.
To address this, 2-month-old female B6.Sle1.Sle3 mice were treated for 60 days with CDDO-Me or placebo, and then spleen size and cellularity were assessed in both groups.

[1] = mouse, in vivo
Description: Since this was a relatively long-term study, and since CDDO-Me cripples multiple signaling axes, one concern can be potential side effects. After 60 days of drug administration (either in the preventive or treatment experiment), body weights of mice from both the CDDO-Me group and the placebo group were similar. […] In addition, liver function was monitored by assaying aspartate aminotransferase (AST); however, there were no significant changes in the CDDO-Me-treated group (AST activity 75.7±6.5 units/liter) compared to the placebo group (74.0±5.8 units/liter).

[2] = absolute cell number in spleen, 4-month-old mice, 60 days treatment, mean ± SEM, n=10

## COC(=O)[C@]12CCC(C)(C)C[C@H]1[C@H]1C(=O)C=C3[C@@]4(C)C=C(C#N)C(=O)C(C)(C)[C@@H]4CC[C@@]3(C)[C@]1(C)CC2 [CDDO-Me, methyl-2-cyano-3,12-dioxooleana-1,9-dien-28-oate]
B6.Sle1.Sle3 mice; 4-month-old B6.Sle1.Sle3 mice after 60 days CDDO-Me 3 mg/kg oral gavage 3 times per week, mean ± SEM, n=10
  Total spleen cell count: 89.1 ± 2.3 10^6
B6.Sle1.Sle3 mice; 60 days treatment, mean±SEM, placebo 6.8±1.1%, P=0.023
  percentage of CD8+ T cells among splenic T cells: 9.73±0.4%
B6.Sle1.Sle3 mice; 60 days treatment, mean±SEM, placebo 15.1±1.2%, P=0.021
  percentage of CD4+ T cells among splenic T cells: 12.1±0.35%
B6.Sle1.Sle3 mice; 60 days treatment, placebo 8.72±0.45, P<0.002
  B cell activation, surface CD86 expression: 6.48±0.42 mean fluorescence intensity units
B6.Sle1.Sle3 mice; 60 days treatment, placebo 39.0±2.0 million, P<0.0001
  absolute number of total splenic CD4+ T cells: 18.7±3.8 million
B6.Sle1.Sle3 mice; [2]
  Splenic B cells: B1a cells: 4.0 ± 0.3
  Splenic B cells: B220+, AA4.1+ (immature): 10.4 ± 1.1
  Splenic B cells: B220+, AA4.1+ (mature): 45.3 ± 3.2
  Splenic B cells: Follicular B cells: 30.9 ± 1.6
  Splenic B cells: Marginal zone B cells: 4.0 ± 0.2
  Splenic B cells: T1 immature: 1.0 ± 0.1
  Splenic B cells: T2 immature: 3.1 ± 0.2
  Splenic B cells: T3 immature: 4.0 ± 0.2
  Splenic T cells: CD4 T cells: 18.7 ± 3.8
  Splenic T cells: CD8 T cells: 8.6 ± 2.4
  Splenic T cells: CD69+/CD4 T cells: 5.1 ± 0.6
  Splenic T cells: CD69+/CD8 T cells: 0.6 ± 0.1
B6.Sle1.Sle3 mice; female B6.Sle1.Sle3 mice treated for 60 days
  decrease of overall spleen weights compared to the placebo-treated group: ~50%
[1]
  AST activity (liver function): 75.7±6.5 units/liter
  all blood cell counts (WBC, RBC, hemoglobin, hematocrit, MCV, MCH, MCHC, RDW, MPV, neutrophils, lymphocytes, eosinophils) versus placebo group: remained similar
  platelet counts versus placebo group: comparable
